26 molecules from ChEMBL document CHEMBL1201862, “PubChem BioAssay data set” (2004) can be followed below.

Some test systems named below: LXFL 529; HOP-18; SNB-78; KM-20L2; DLD-1; DMS-273; DMS-114; XF498; RXF 631.
Assay in all cases: DTP human tumour cell line panel, 48 h

Molecules are shown by their SMILES.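 96-well plates; 48 h exposure; 5 concentrations. Endpoints by linear interpolation between flanking doses. Not reached: highest tested concentration assigned. GI50 is the concentration that inhibits growth by half.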 The source made the active and inactive calls. Rule as the data show it: active = GI50 up to about 1.1 µM and inactive = higher.

Turning to `CN(C)CCSc1cccc(-c2cc(-c3cccc(SCCN(C)C)c3)nc(SCCN(C)C)n2)c1`, the GI50 was 2.02 µM (inactive) in the assay on LXFL 529; < 0.01 µM (active) in the assay on HOP-18; 2.42 µM (inactive) with SNB-78; 1.71 µM (inactive) in the assay on KM-20L2; 12.9 µM (inactive) in the assay with DLD-1.

Consider `Cc1cc(N(CCC#N)S(=O)(=O)c2ccccc2)ccc1/C=N/c1ccc(C(=O)O)cc1`, for which the GI50 was 1.76 µM (inactive) in the assay on LXFL 529; 3.24 µM (inactive) in the assay on HOP-18; 6.61 µM (inactive) in the assay with DMS-273; 12.3 µM (inactive) in the assay on SNB-78; 9.82 µM (inactive) with KM-20L2; 3.41 µM (inactive) in the assay with DMS-114. The GI50 with DLD-1 is 1.99 µM (inactive); with XF498, 8.71 µM (inactive).

As for `Cc1nc([N+](=O)[O-])cn1CC(=N)N`, the GI50 with LXFL 529, in the assay on RXF 631, in the assay on DMS-273, in the assay with KM-20L2, in the assay on DMS-114 and with DLD-1 was > 100 µM (inactive) in each case.

`Cc1cc(N(CCC#N)CCC#N)ccc1/N=N/c1ccc(S(N)(=O)=O)cc1`: the GI50 with LXFL 529 is > 100 µM (inactive); with RXF 631, > 100 µM (inactive); in the assay on HOP-18 it was 51.1 µM (inactive); with DMS-273, > 100 µM (inactive); in the assay with SNB-78 it was > 100 µM (inactive); in the assay on DMS-114 it was > 100 µM (inactive). The results for the GI50 in the assay with DLD-1 and in the assay on XF498 were > 100 µM (inactive) and 0.0413 µM (active), respectively.

As to `Cc1ccc(S(=O)(=O)OCOS(=O)(=O)c2ccc(C)cc2)cc1`, the GI50 is > 100 µM (inactive) in the assay on LXFL 529; > 100 µM (inactive) with HOP-18; > 100 µM (inactive) in the assay on DMS-273; > 10 µM (inactive) in the assay on SNB-78; > 100 µM (inactive) in the assay on KM-20L2; > 100 µM (inactive) with DMS-114. Also, the GI50 with DLD-1 is > 100 µM (inactive).

On to `CCOC(=O)C1=C(NC)OC/C1=N\NC(=O)c1ccccc1O`, for which the GI50 with LXFL 529 is 39.8 µM (inactive); in the assay with HOP-18, 14.8 µM (inactive); in the assay on DMS-273, 23.1 µM (inactive); in the assay with SNB-78 it was 96.6 µM (inactive); in the assay with KM-20L2, 39.7 µM (inactive); in the assay on DMS-114, 20.7 µM (inactive). Moreover, the GI50 in the assay with DLD-1 is 17.6 µM (inactive); in the assay with XF498, 56.4 µM (inactive).

Take `COc1ccc(OC(=O)CC2Cc3cc(OC)c(OC)c(OC)c3-c3ccc(SC)c(=O)cc32)cc1` (stereo not drawn): the GI50 is 0.217 µM (active) in the assay with LXFL 529; 0.281 µM (active) with RXF 631; 0.102 µM (active) with DMS-273; 0.169 µM (active) in the assay with KM-20L2; 0.348 µM (active) in the assay with DMS-114; 0.344 µM (active) in the assay on DLD-1. Further, in the assay with XF498, the GI50 is 0.258 µM (active).

Take `O=C1Sc2sc(=S)sc2SC1c1ccccc1` (stereo not drawn): the GI50 in the assay with HOP-18 was 48.1 µM (inactive); in the assay on DMS-273, > 100 µM (inactive); in the assay on SNB-78, 31.9 µM (inactive); in the assay with KM-20L2 it was > 63.5 µM (inactive); in the assay on DMS-114, 34.3 µM (inactive); with DLD-1, 32.2 µM (inactive). Also, the GI50 in the assay on XF498 was 45.2 µM (inactive).

As to `CCOC(=O)N1CCc2cc(OC)c(OC)cc2/C1=C/c1ccc(OC)c(OC)c1`, the GI50 in the assay on LXFL 529 was 34.6 µM (inactive); with HOP-18, > 100 µM (inactive); with DMS-273, 49.2 µM (inactive); with SNB-78, 38 µM (inactive); in the assay with KM-20L2 it was 38.3 µM (inactive); in the assay with DMS-114, 40 µM (inactive). Further, the GI50 in the assay with DLD-1 was 48.6 µM (inactive); in the assay with XF498, 30 µM (inactive).

As to `O=P1(NCCCl)OCCC(OO)N1CCCl` (stereo not drawn), the GI50 in the assay on HOP-18 is 39.9 µM (inactive); in the assay on DMS-273, 47.3 µM (inactive); with SNB-78 it was 34.2 µM (inactive); in the assay on KM-20L2, > 100 µM (inactive); in the assay on DMS-114, 31.6 µM (inactive); with DLD-1, 21.2 µM (inactive).

In the case of `CCOc1ccccc1NC(=O)C(C#N)C1=C(Cl)C(=O)c2ccccc2C1=O` (stereo not drawn), the GI50 in the assay on LXFL 529 was 1.85 µM (inactive); in the assay on RXF 631, 2.09 µM (inactive); in the assay on HOP-18, 1.5 µM (inactive); in the assay with DMS-273, 1.88 µM (inactive); in the assay on SNB-78, 3.32 µM (inactive); in the assay with KM-20L2 it was 1.93 µM (inactive). The GI50 is 0.743 µM (active) with DMS-114, 1.85 µM (inactive) in the assay with DLD-1 and 2.29 µM (inactive) with XF498.

In the case of `COc1cc2c3c(c1OC)/C(=N/OS(=O)(=O)c1ccc(C)cc1)CC3N(S(=O)(=O)c1ccc(C)cc1)CC2` (stereo not drawn), the GI50 with LXFL 529 was > 100 µM (inactive); in the assay on RXF 631 it was 66.1 µM (inactive); with HOP-18 it was > 100 µM (inactive); in the assay on DMS-273, > 100 µM (inactive); in the assay on SNB-78, 41.7 µM (inactive); in the assay with KM-20L2, > 100 µM (inactive). In addition, the GI50 in the assay on DMS-114, in the assay with DLD-1 and in the assay on XF498 was > 100 µM (inactive) in each case.

Consider `CCOc1ccccc1C=C1c2ccccc2C(=O)c2ccccc21`, for which the GI50 with LXFL 529 is 6.98 µM (inactive); with DMS-273, 0.535 µM (active); in the assay with SNB-78, 5.75 µM (inactive); in the assay with DMS-114, 3.42 µM (inactive); in the assay on DLD-1 it was 2.55 µM (inactive).

`NC(=O)/C(=N\NC(=O)c1cc2ccccc2cc1O)C1C(=O)N(c2ccccc2)N=C1N` (stereo not drawn): the GI50 in the assay on LXFL 529 was 59.3 µM (inactive); with RXF 631, 37.3 µM (inactive); in the assay with HOP-18, 17.5 µM (inactive); in the assay on SNB-78 it was 69.8 µM (inactive); in the assay with KM-20L2, 32.9 µM (inactive); in the assay on DMS-114, 20.4 µM (inactive). Moreover, the GI50 in the assay with DLD-1 is 34 µM (inactive); in the assay with XF498, 37.6 µM (inactive).

Turning to `CN(C)C=[N+]=[N-]`, the GI50 in the assay on LXFL 529, with HOP-18, with DMS-273, with SNB-78, in the assay on KM-20L2 and in the assay with DMS-114 was > 100 µM (inactive) each time. For the same molecule, the GI50 in the assay with DLD-1 and in the assay with XF498 was > 100 µM (inactive) throughout.

In the case of `CCOC(=O)Cc1ccc2c(c1O)C(=O)c1c(ccc(CC(=O)OCC)c1O)C2=O`, the GI50 with LXFL 529 was > 100 µM (inactive); in the assay on HOP-18, 28.4 µM (inactive); in the assay on DMS-273, > 100 µM (inactive); with SNB-78, > 100 µM (inactive); in the assay on KM-20L2, > 100 µM (inactive); with DMS-114 it was > 100 µM (inactive). The GI50 in the assay on DLD-1 and with XF498 was > 100 µM (inactive) each time.

Take `COc1ccccc1NC(=O)CC(=O)N1N=C(C)C(/N=N/c2ccc(S(N)(=O)=O)cc2)C1=O` (stereo not drawn): the GI50 in the assay with LXFL 529, in the assay with HOP-18, in the assay on DMS-273, in the assay with SNB-78, with KM-20L2 and in the assay with DMS-114 was > 100 µM (inactive) throughout. Also, the GI50 with DLD-1 and in the assay with XF498 was > 100 µM (inactive) in each case.

For the molecule `O=C(O)C1=CCCc2ccc3ccccc3c21`, the GI50 with LXFL 529 was > 100 µM (inactive); with RXF 631, > 100 µM (inactive); with HOP-18, 21.6 µM (inactive); in the assay with DMS-273, > 100 µM (inactive); in the assay on SNB-78 it was > 100 µM (inactive); in the assay on KM-20L2 it was > 100 µM (inactive). For the same molecule, the GI50 in the assay with DMS-114 and in the assay on XF498 was > 100 µM (inactive) in each case.

With `COc1cccc(NC(=O)CC(=O)N2N=C(N3c4ccccc4Sc4ccccc43)CC2c2ccccc2)c1` (stereo not drawn), the GI50 in the assay on LXFL 529 was > 100 µM (inactive); in the assay with HOP-18, 9.48 µM (inactive); in the assay on SNB-78 it was > 100 µM (inactive); in the assay on KM-20L2, > 100 µM (inactive); in the assay on DMS-114 it was > 100 µM (inactive); in the assay on DLD-1, > 100 µM (inactive). In the assay on XF498, the GI50 was > 100 µM (inactive).

As for `O=C1/C(=C/c2ccc(Cl)cc2)CCC1CN1CCOCC1` (stereo not drawn), the GI50 with LXFL 529 was 2.58 µM (inactive); in the assay on RXF 631, 8.36 µM (inactive); with HOP-18, 13.9 µM (inactive); with DMS-273 it was 3.06 µM (inactive); in the assay on SNB-78, 12.5 µM (inactive); in the assay on KM-20L2, 10.7 µM (inactive). Further, the GI50 in the assay on DMS-114 is 22.8 µM (inactive); in the assay on DLD-1 it was 2.52 µM (inactive); in the assay on XF498, 2.55 µM (inactive).

Consider `O=C(Nc1cc([N+](=O)[O-])cc([N+](=O)[O-])c1)OC1C2CCC1C1OC1C2` (stereo not drawn), for which the GI50 with SNB-78 is > 50 µM (inactive); in the assay with KM-20L2 it was > 50 µM (inactive); in the assay with DMS-114, 30.5 µM (inactive); with DLD-1 it was > 50 µM (inactive).

For `CC(=O)OC1CCC2(C)C(CCC3C2CCC2(C)C(c4ccc(=O)oc4)C(OC(C)=O)CC32O)C1` (stereo not drawn), the GI50 was 0.0125 µM (active) with HOP-18; 0.0125 µM (active) in the assay with DMS-273; 0.0164 µM (active) with SNB-78; 0.0188 µM (active) in the assay on KM-20L2; 0.0155 µM (active) in the assay on DLD-1; 0.0244 µM (active) with XF498.

For the molecule `C=C(CN(C)C)C(=O)c1ccc(OC)cc1`, the GI50 with LXFL 529 was 1.69 µM (inactive); with HOP-18, 3.78 µM (inactive); with DMS-273, 3.8 µM (inactive); in the assay on SNB-78, 2.36 µM (inactive); in the assay with KM-20L2, 5.13 µM (inactive); in the assay with DMS-114, 3.7 µM (inactive). For the same molecule, the GI50 in the assay on DLD-1 is 0.427 µM (active); in the assay on XF498, 1.93 µM (inactive).

With `CNC=O`, the GI50 with HOP-18 is > 10000 µM (inactive); with DMS-273, > 10000 µM (inactive); with SNB-78 it was > 7830 µM (inactive); in the assay with KM-20L2, > 10000 µM (inactive); in the assay with DMS-114, > 5160 µM (inactive); with DLD-1, > 10000 µM (inactive). Moreover, in the assay with XF498, the GI50 is > 9550 µM (inactive).

Turning to `N[C@H](C(=O)O)[C@@H]1CC(Cl)=NO1` [ACIVICIN], the GI50 was 37.9 µM (inactive) in the assay on HOP-18; 2.33 µM (inactive) in the assay with DMS-273; 4.25 µM (inactive) in the assay on SNB-78; 1.36 µM (inactive) in the assay on KM-20L2; 5.53 µM (inactive) in the assay on DMS-114; 1.23 µM (inactive) with DLD-1. In addition, the GI50 with XF498 is 23.8 µM (inactive).

Regarding `OC[C@H]1O[C@@H](n2cnc3cncnc32)[C@H](O)[C@@H]1O` [NEBULARINE], the GI50 with HOP-18 was 2.62 µM (inactive); with DMS-273, 0.59 µM (active); with SNB-78, 4.02 µM (inactive); in the assay on KM-20L2, 1.04 µM (active); in the assay with DMS-114, 1.21 µM (inactive); in the assay on DLD-1, 0.536 µM (active). Besides, in the assay with XF498, the GI50 is < 0.01 µM (active).

The term GI50 denotes the concentration that inhibits growth by half.
